Measured values from paper PMC6206036, “Locking loop movement in the ubiquinone pocket of complex I disengages the proton pumps” (Nature Communications, 2018).
Like-named read-outs stand apart in the source and are kept apart here.

Columns and labels:
[1] = molecular target: T1, Complex I (proton-pumping NADH:ubiquinone oxidoreductase) (Yarrowia lipolytica, UniProt Q9B6C7+Q9B6E8+Q9UUT7+Q9UUU1); assay: dNADH:DBQ oxidoreductase activity at […] nm, mitochondrial membranes; type: biochemical; details: 100 µM dNADH, DBQ 0-100 µM, pH 8.5, 25 °C; membranes preincubated with 5 mM DTT for 5 min (ND3-PSST disulfide reduced); read-out: K M ^d /
T1 construct: gene nucm; native complete respiratory complex I in unsealed mitochondrial membranes; nugm-Htg2 (tagged NUGM) strain background; NUKM expressed from replicative plasmid pUB4 under endogenous promoter; 14 central plus accessory subunits; with NADH-ubiquinone oxidoreductase 51 kDa subunit, mitochondrial

[2] = molecular target: T1, Complex I (proton-pumping NADH:ubiquinone oxidoreductase); assay: inhibition of dNADH:DBQ oxidoreductase activity, mitochondrial membranes; type: biochemical
Text: inhibition of dNADH:DBQ oxidoreductase activity, mitochondrial membranes on Complex I (proton-pumping NADH:ubiquinone oxidoreductase)

[3] = substrate: CCCCCCCCCCC1=C(C)C(=O)C(OC)=C(OC)C1=O; assay: cells, lysate or membranes; type: biochemical, Yarrowia lipolytica; details: 100 µM dNADH, DBQ 0-100 µM, pH 8.5, 25 °C, membranes preincubated with 5 mM DTT for 5 min

## CCCCCCCCCCC1=C(C)C(=O)C(OC)=C(OC)C1=O [DBQ, decylubiquinone]
[1]
  Km: 19 ± 3 µM

## CCCCCCCCCCc1nc(N)c2ccccc2n1 [DQA, 2-n-decyl-quinazolin-4-yl-amine]
[2]; 100 µM dNADH, 100 µM DBQ, pH 8.5, 25 °C, membranes preincubated with 5 mM DTT for 5 min (ND3-PSST disulfide reduced)
  IC50: 13 ± 3 nM
[2]; 100 µM dNADH, 100 µM DBQ, pH 8.5, 25 °C, membranes preincubated with 5 mM DTT for 5 min, read-out: IC50^e / DQA /
  IC50: 16 ± 3 nM

## C=C(C)[C@H]1Cc2c(ccc3c2O[C@@H]2COc4cc(OC)c(OC)cc4[C@@H]2C3=O)O1 [rotenone]
[2]; read-out: IC50^e / Rotenone /
  IC50: 560 ± 55 nM

B1: Complex I (proton-pumping NADH:ubiquinone oxidoreductase) (Yarrowia lipolytica CLIB122) (protein)
chain 1: MATTALPQDPIPSGALGQKVPHVDESHQDLLFRTSHMVEDLETYDEDSPINTSDANTRIRAFTINFGPQHPAAHGVLRLILELSGEEIIRSDPHVGLLHRGTEKLIEYKTYMQALPYFDRLDYVSMMTNEQVFSLAVEKLLNVEVPLRGKYIRTMFGEITRVLNHLMSVCSHAMDVGALTPFLWGFEEREKLMEFYERVSGARLHAAYVRPGGVSQDLPAGLLDDIYMWATQFGDRLDEIEELLTDNRIWKLRTVNIGTVTAQDALNLGLSGPMLRGSGIPFDIRKNAPYDAYDKVDFDVPVGMNGDCYDRYLIRMAEFRQSLRIIEQCCNDMPAGAVKVEDFKINSPPRNLMKEDMEALIHHFLLYTKGYSVPPGETYTAIEAPKGEMGVYVVSDGSERPYKCKIRAPGFAHLGAFDHIARGHFLPDAVAIIGTMDLVFGEVDR
chain 2: SAPAGTPRVSSSSMPTDFPLPSQQKPNSAVDYTLTTLDAVANWARQGSFWPVTFGLACCAVEMMHVSAPRYDQDRLGIIFRASPRQSDIMIVAGTLTNKMAPVLRQVYDQMPEPRWVISMGSCANGGGYYHFSYSVVRGCDRIVPVDVYVPGCPPTSEALMYGVFQLQRKMRNTKITRMWYRK
chain 3: MIINIVEILIFLVCVLFSVAYLTVAERKTLAYMQRRLGPNFVGYYGLLQAFADAVKLLLKEIVLPKESNYIILVISPLITLITALIGWVVIPLGPGITLGELNLGILFSLAIGSLGVFGSLLSGWSSNSKYSLLGSIRSTAQLISYELILTSIFIIIIMFVSSLNITTIIETQRVVWYCIPLLPLLLIFFIASVAETARPPFDLTESESELVAGYFTEYSGSPFVFFFLAEYSNIILISAFNGYLLLGGYLSFNYSYLFNILFNDYSYVSFLFEGLINSSAYAIKLVFLMFSFIWVRAAFPRFTYDNLINFCWIILLPLLFGIFLIIPSTLYIFDSFPTLI
chain 4: MNTFIIFIILIPIVGFALLAVNILLAVYKPYNEKLGAFECGLTSFNQTRLAFNAAFILVAILFLPFDLEISTLLPYVMSIYLVSNYGFTIVLLFLLILIIGFVYEINTNALKINKHNKPNTDSLIYKL
notes: native complete respiratory complex I in unsealed mitochondrial membranes; nugm-Htg2 (tagged NUGM) strain background; NUKM expressed from replicative plasmid pUB4 under endogenous promoter; 14 central plus accessory subunits; with NADH-ubiquinone oxidoreductase 51 kDa subunit, mitochondrial
[3]
  Km: 17 ± 3 µM
  Vmax: 0.16 µmol/min/mg
